Measurements from patent US20250177429A1, “ORALLY ACTIVE PRODRUG OF GEMCITABINE” (Laevoroc Chemotherapy AG, priority 2022, published 2025).
Like-named read-outs stand apart in the source and are kept apart here. Each block holds one compound with its values, some of them ahead of it.

Experiments:
CDA = CDA (Homo sapiens, UniProt P32320); conditions: Bender et al. 2009; cited from earlier work
Japanese patients = conditions: phase I, 2013; cited from earlier work
[1] = result of first pass metabolism; Shipley et al. 1992; cited from earlier work
mice = conditions: cited from earlier work
[2] = Solubility of the mono-hydrochloride salt in water and buffer solutions; assay type: physicochemical; conditions: thermodynamic from solid; for solubility at 15 min: solid added until saturation
Procedure: In each case, a first estimation was performed by adding small amounts of solvents until dissolution of the solid (50 mg), followed by a second estimation performed through the addition of small amounts of solid to a determined quantity of solvent until saturation was reached (suspension observed after 15 min). This second estimation was undertaken twice for each solution.

[3] = Powder stability of the API on storage; assay type: physicochemical; conditions: powder form of the API, FIG. 3
[4] = Stability in aqueous media at RT; assay type: physicochemical
Excerpt: Regarding to the MS profile, most of the observed impurities concern a valproic moiety cleavage and/or valine moiety migration/cleavage. […] In agreement with earlier observation, a lower acidity medium will likely result in a higher ratio of valine hydrolysis.

Chain of CDA (P32320 whole entry, species assumed): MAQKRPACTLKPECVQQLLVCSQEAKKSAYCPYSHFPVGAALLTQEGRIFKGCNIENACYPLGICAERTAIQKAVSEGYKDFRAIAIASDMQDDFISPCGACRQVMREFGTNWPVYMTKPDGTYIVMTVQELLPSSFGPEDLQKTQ

SMILES: CCCC(CCC)C(=O)Nc1ccn([C@@H]2O[C@H](CO)[C@@H](O)C2(F)F)c(=O)n1 [LY2334737]
Degradation by CDA (CDA): significantly less prone to degradation by CDA
Hepatic toxicity (Japanese patients): unexpected hepatic toxicities

SMILES: Nc1ccn([C@@H]2O[C@H](CO)[C@@H](O)C2(F)F)c(=O)n1 [gemcitabine, Gemcitabine]
Oral bioavailability [1]: poor
Death or gastrointestinal toxicity after intravenous dosing (mice; comparable exposures via intravenous dosing): did not result in death or gastrointestinal toxicity
Intestinal lesions after single oral dose (mice; single oral (gavage) dose of 167, 333, or 500 mg/kg, Horton et al. 2004): moderate-to-marked loss of mucosal epithelium (atrophic enteropathy)

solubility ([2]; buffer solution pH 1.2, pH 1.2, simulated gastric fluid, Buffer pH 1.2, read-out: Mean solubility): 211 mg/mL
solubility at 15 min ([2]; buffer solution pH 1.2, pH 1.2, simulated gastric fluid, Buffer pH 1.2, read-out: Solubility, Estimation 2a): 217 mg/mL
solubility at 15 min ([2]; buffer solution pH 1.2, pH 1.2, simulated gastric fluid, Buffer pH 1.2, read-out: Solubility, Estimation 2b): 208 mg/mL
solubility ([2]; buffer solution pH 1.2, pH 1.2, simulated gastric fluid, Buffer pH 1.2, solvent added until dissolution of 50 mg solid, read-out: Solubility, Estimation 1): 207 mg/mL
solubility ([2]; buffer solution pH 4.5, pH 4.5, aqueous buffer, Buffer pH 4.5, read-out: Mean solubility): 227 mg/mL
solubility at 15 min ([2]; buffer solution pH 4.5, pH 4.5, aqueous buffer, Buffer pH 4.5, read-out: Solubility, Estimation 2a): 236 mg/mL
solubility at 15 min ([2]; buffer solution pH 4.5, pH 4.5, aqueous buffer, Buffer pH 4.5, read-out: Solubility, Estimation 2b): 233 mg/mL
solubility ([2]; buffer solution pH 4.5, pH 4.5, aqueous buffer, Buffer pH 4.5, solvent added until dissolution of 50 mg solid, read-out: Solubility, Estimation 1): 213 mg/mL
solubility ([2]; buffer solution pH 6.8, pH 6.8, aqueous buffer, Buffer pH 6.8, read-out: Mean solubility): 275 mg/mL
solubility at 15 min ([2]; buffer solution pH 6.8, pH 6.8, aqueous buffer, Buffer pH 6.8, read-out: Solubility, Estimation 2a): 302 mg/mL
solubility at 15 min ([2]; buffer solution pH 6.8, pH 6.8, aqueous buffer, Buffer pH 6.8, read-out: Solubility, Estimation 2b): 280 mg/mL
solubility ([2]; buffer solution pH 6.8, pH 6.8, aqueous buffer, Buffer pH 6.8, solvent added until dissolution of 50 mg solid, read-out: Solubility, Estimation 1): 241 mg/mL
solubility ([2]; water, Water, read-out: Mean solubility): 394 mg/mL
solubility at 15 min ([2]; water, Water, read-out: Solubility, Estimation 2a): 463 mg/mL
solubility at 15 min ([2]; water, Water, read-out: Solubility, Estimation 2b): 462 mg/mL
solubility ([2]; water, Water, solvent added until dissolution of 50 mg solid, read-out: Solubility, Estimation 1): 257 mg/mL
Powder stability, change on storage ([3]; 3 months' storage at 2-4° C.): no significant change
Powder stability, change on storage ([3]; 3 months' storage at RT): no significant change
Stability in aqueous media at RT ([4]; Water, 30 Min): 97.06%
Stability in aqueous media at RT ([4]; Water, 1 hour): 96.98%
Stability in aqueous media at RT ([4]; Water, 2 hours): 96.89%
Stability in aqueous media at RT ([4]; Water, 4 hours): 96.62%
Stability in aqueous media at RT ([4]; Water, 6 hours): 96.42%
Stability in aqueous media at RT ([4]; Water, 1 day): 94.45%
Stability in aqueous media at RT ([4]; Water, 2 days): 91.07%
Stability in aqueous media at RT ([4]; Water, 7 days): 77.12%
Stability in aqueous media at RT ([4]; Water, time 0 (API Powder)): 97.21%
Degradation of the API in aqueous media ([4]; aqueous media, RT, FIG. 4): significant short-term degradation
Stability in aqueous media at RT ([4]; pH 1.2, 30 Min): 97.03%
Stability in aqueous media at RT ([4]; pH 1.2, 1 hour): 96.83%
Stability in aqueous media at RT ([4]; pH 1.2, 2 hours): 96.42%
Stability in aqueous media at RT ([4]; pH 1.2, 4 hours): 95.71%
Stability in aqueous media at RT ([4]; pH 1.2, 6 hours): 95.14%
Stability in aqueous media at RT ([4]; pH 1.2, 1 day): 88.40%
Stability in aqueous media at RT ([4]; pH 1.2, 2 days): 80.05%
Stability in aqueous media at RT ([4]; pH 1.2, 7 days): 30.60%
Stability in aqueous media at RT ([4]; pH 1.2, time 0 (API Powder)): 97.21%
Stability in aqueous media at RT ([4]; pH 4.5, 30 Min): 96.45%
Stability in aqueous media at RT ([4]; pH 4.5, 1 hour): 96.35%
Stability in aqueous media at RT ([4]; pH 4.5, 2 hours): 96.24%
Stability in aqueous media at RT ([4]; pH 4.5, 4 hours): 95.46%
Stability in aqueous media at RT ([4]; pH 4.5, 6 hours): 94.87%
Stability in aqueous media at RT ([4]; pH 4.5, 1 day): 90.73%
Stability in aqueous media at RT ([4]; pH 4.5, 2 days): 84.24%
Stability in aqueous media at RT ([4]; pH 4.5, 7 days): 57.17%
Stability in aqueous media at RT ([4]; pH 4.5, time 0 (API Powder)): 97.21%
Stability in aqueous media at RT ([4]; pH 6.8, 30 Min): 91.08%
Stability in aqueous media at RT ([4]; pH 6.8, 1 hour): 87.32%
Stability in aqueous media at RT ([4]; pH 6.8, 2 hours): 80.70%
Stability in aqueous media at RT ([4]; pH 6.8, 4 hours): 65.65%
Stability in aqueous media at RT ([4]; pH 6.8, 6 hours): 57.40%
Stability in aqueous media at RT ([4]; pH 6.8, 1 day): 9.48%
Stability in aqueous media at RT ([4]; pH 6.8, 2 days): 7.48%
Stability in aqueous media at RT ([4]; pH 6.8, 7 days): 1.77%
Stability in aqueous media at RT ([4]; pH 6.8, time 0 (API Powder)): 97.21%
SMILES: CCCC(CCC)C(=O)Nc1ccn([C@@H]2O[C@H](CO)[C@@H](OC(=O)[C@@H](N)C(C)C)C2(F)F)c(=O)n1.Cl [LR-06-B.HCl, (2R,3R,5R)-4,4-difluoro-2-(hydroxymethyl)-5-(2-oxo-4-(2-propylpentanamido)-1,2-dihydropyrimidin-1-yl)oxolan-3-yl (2S)-2-amino-3-methylbutanoate hydrochloride]
